The text below walks through data of ChEMBL document CHEMBL3632588 (Medchemcomm, 2015).

Data set [1] is described as follows: Cytotoxicity in mouse NMuMG cells assessed as cell growth at 20 uM after 72 hrs by colorimetry. Type of data set: cell-based. The conditions noted are these: read-out: Activity.
In data set [2] the test system is HeLa. In words: Antiproliferative activity against human HeLa cells assessed as cell growth at 20 uM after 72 hrs by colorimetry. Type of data set: functional. The settings on record: read-out: Activity.
Data set [3] deals with MCF7. In words: Antiproliferative activity against human MCF7 cells assessed as cell growth at 20 uM after 72 hrs by colorimetry. The settings on record: MCF7, 72 h, read-out: Activity. The data set is classed as functional.
The nature of data set [4]: Antiproliferative activity against mouse B16F0 cells assessed as cell growth at 20 uM after 72 hrs by colorimetry. The data set is classed as functional. The conditions noted are these: B16F0, 72 h, read-out: Activity.
A short description of data set [5]: Antiproliferative activity against mouse LM3 cells assessed as cell growth at 20 uM after 72 hrs by colorimetry. Type of data set: functional. The conditions noted are these: LM3, 72 h, read-out: Activity.
Data set [6] concerns HeLa. In words: Antiproliferative activity against human HeLa cells after 72 hrs by colorimetry. The data set is classed as functional, cell-based.
The test system of data set [7] is MCF7. Briefly: Antiproliferative activity against human MCF7 cells after 72 hrs by colorimetry. Type of data set: functional, cell-based. The conditions noted are these: MCF7, 72 h.
A short description of data set [8]: Antiproliferative activity against mouse B16F0 cells after 72 hrs by colorimetry. Type of data set: functional, cell-based. The settings on record: B16F0, 72 h.
The nature of data set [9]: Antiproliferative activity against mouse LM3 cells after 72 hrs by colorimetry. The data set is classed as functional, cell-based. The conditions noted are these: LM3, 72 h.
Data set [10] in a line: Cytotoxicity in mouse NMuMG cells after 72 hrs by colorimetry. Type of data set: cell-based.
The subject of data set [11] is HeLa. Briefly: Ratio of IC50 for mouse NMuMG cells to IC50 for human HeLa cells.
Data set [12] concerns MCF7. In words: Ratio of IC50 for mouse NMuMG cells to IC50 for human MCF7 cells.
Data set [13] in a line: Ratio of IC50 for mouse NMuMG cells to IC50 for mouse B16F0 cells.
The nature of data set [14]: Ratio of IC50 for mouse NMuMG cells to IC50 for mouse […] cells.

SMILES strings stand for the structures.

Broadly, the IC50 is the midpoint of a concentration-inhibition curve. As for `COC(=O)[C@@H]1N2C(=O)C(Br)(Br)[C@H]2S[C@@]1(C)CSc1nc(-c2ccccc2)c(-c2ccccc2)o1`, in [1], the viability at 72 h, 20 µM is 55%. Also, the growth at 20 µM in the data set on HeLa [2] was determined as 7%; in the data set on MCF7 [3], 27%; in [4] it was 38%; in data set [5] it was 35%. In addition, the IC50 was 7 µM with HeLa [6]; 18 µM with MCF7 [7]; 11 µM in data set [8]; 14 µM in data set [9]; 31 µM in [10]. Besides, the “Ratio IC50” value in the data set on HeLa [11] was determined as 4.4; in the data set on MCF7 [12], 1.7; in data set [13], 2.8; in [14] it was 2.2.

As to `COC(=O)[C@@H]1N2C(=O)[C@H](Cl)[C@H]2S[C@@]1(C)CSC1=NCCS1`, the viability at 72 h, 20 µM in [1] came out at 65%. Besides, the growth at 20 µM in the data set on HeLa [2] came out at 48%; with MCF7 [3], 87%; in data set [4] it was 71%; in data set [5] it was 54%. The IC50 in the data set on HeLa [6] turned out to be 19 µM; in data set [9], 20 µM; in data set [10], 41 µM. Further, the “Ratio IC50” value is given as 2.2 with HeLa [11] and 2 in data set [14].

Turning to `COC(=O)[C@@H]1N2C(=O)C(Br)(Br)[C@H]2S(=O)(=O)[C@@]1(C)CCl`, the viability at 72 h, 20 µM in data set [1] amounted to 35%.

As for `CCOc1ccc2nc(SC[C@]3(C)S[C@@H]4[C@@H](Cl)C(=O)N4[C@H]3C(=O)OC)sc2c1`, the viability at 72 h, 20 µM in data set [1] stood at 64%. The growth at 20 µM stood at 56% in the data set with HeLa [2], 65% in the data set on MCF7 [3], 52% in [4] and 49% in data set [5]. Also, the IC50 is 24 µM in the data set with HeLa [6], 27 µM in data set [8], 24 µM in [9] and 43 µM in data set [10]. The “Ratio IC50” value with HeLa [11] worked out at 1.8; in [13], 1.6; in [14], 1.8.

In the case of `COC(=O)[C@@H]1N2C(=O)[C@H](Cl)[C@H]2S[C@@]1(C)CSc1nc(-c2ccccc2)c(-c2ccccc2)o1`, the viability at 72 h, 20 µM in data set [1] worked out at 55%. Besides, the growth at 20 µM with HeLa [2] came to 27%; in the data set with MCF7 [3] it was 87%; in data set [4], 65%; in data set [5], 65%. Also, the IC50 is 13 µM in the data set with HeLa [6] and 32 µM in data set [10]. The “Ratio IC50” value in the data set with HeLa [11] is given as 2.5.

As to `COC(=O)[C@@H]1N2C(=O)[C@H](Cl)[C@H]2S[C@@]1(C)CSc1nc2ccccc2o1`, in [1], the viability at 72 h, 20 µM is 65%. In addition, the growth at 20 µM in the data set on HeLa [2] came to 68%; in the data set with MCF7 [3] it was 84%; in data set [4] it was 68%; in [5] it was 87%.

Take `COC(=O)[C@@H]1N2C(=O)[C@H](Cl)[C@H]2S[C@@]1(C)CSc1nc2ccccc2s1`: the viability at 72 h, 20 µM in [1] was 55%. Further, the growth at 20 µM in the data set on HeLa [2] stood at 44%; in the data set on MCF7 [3], 66%; in data set [4], 48%; in [5], 55%. Moreover, the IC50 in the data set with HeLa [6] was 18 µM; in [8], 18 µM; in data set [9] it was 20 µM; in [10], 36 µM. The figures for the “Ratio IC50” value (in the data set with HeLa [11]; in data set [13]; in [14]) were 2, 2 and 1.8, respectively.

In the case of `CCOc1ccc2nc(SC[C@@]3(C)[C@H](C(=O)OC)N4C(=O)[C@H](Cl)[C@H]4S3(=O)=O)sc2c1`, the viability at 72 h, 20 µM in [1] is 8%.
